These results are taken from ChEMBL document CHEMBL1124675, “Synthesis and biological evaluation of a monocyclic, fully functional analogue of compactin” (J Med Chem, 1989).

Molecules are shown by their SMILES.

The target of this experiment is T1, 3-hydroxy-3-methylglutaryl-coenzyme A reductase (Rattus norvegicus, UniProt P51639).
T1 sequence (P51639 whole entry): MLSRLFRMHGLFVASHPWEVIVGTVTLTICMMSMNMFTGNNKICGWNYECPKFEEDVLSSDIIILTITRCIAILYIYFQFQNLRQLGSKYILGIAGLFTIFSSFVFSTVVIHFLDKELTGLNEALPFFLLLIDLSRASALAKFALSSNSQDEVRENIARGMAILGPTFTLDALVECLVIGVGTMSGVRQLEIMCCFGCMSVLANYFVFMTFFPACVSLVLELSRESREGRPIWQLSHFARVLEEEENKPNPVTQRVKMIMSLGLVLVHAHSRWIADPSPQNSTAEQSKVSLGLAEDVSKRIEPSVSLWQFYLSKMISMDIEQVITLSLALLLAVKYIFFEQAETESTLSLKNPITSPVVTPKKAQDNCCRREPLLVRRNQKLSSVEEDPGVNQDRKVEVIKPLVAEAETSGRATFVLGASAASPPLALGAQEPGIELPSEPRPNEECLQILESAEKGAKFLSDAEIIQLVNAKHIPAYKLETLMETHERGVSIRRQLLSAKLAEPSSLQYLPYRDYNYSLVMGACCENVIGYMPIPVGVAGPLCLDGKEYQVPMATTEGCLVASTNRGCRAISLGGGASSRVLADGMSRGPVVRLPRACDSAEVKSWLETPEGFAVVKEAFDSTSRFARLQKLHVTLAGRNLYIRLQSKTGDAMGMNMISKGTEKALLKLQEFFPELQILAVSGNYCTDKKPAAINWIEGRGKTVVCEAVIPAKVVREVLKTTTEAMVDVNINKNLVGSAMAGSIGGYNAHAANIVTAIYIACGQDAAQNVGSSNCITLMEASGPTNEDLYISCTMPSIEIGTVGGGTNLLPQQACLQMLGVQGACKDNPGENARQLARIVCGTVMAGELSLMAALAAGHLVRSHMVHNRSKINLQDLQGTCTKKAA
Description: Ability of compound to inhibit the activity of 3-hydroxy-3-methylglutarylcoenzyme A(HMGR) reductase in rat liver microsomes. Further details: species or system Microsome. (In general: Liver microsomes are vesicles of endoplasmic reticulum, rich in cytochrome P450 enzymes.)
Broadly, the IC50 is the concentration that gives 50% inhibition. A high value points to weaker potency. Take `CC[C@H](C)C(=O)O[C@H]1C[C@@H](C)C[C@@H]2C=C[C@H](C)[C@H](CCC(O)C[C@@H](O)CC(=O)O)C12` (stereo not given in full): 0.0016 µM corresponded to half-maximal inhibition (IC50). To `CC[C@H](C)C(=O)O[C@H]1CCC=C2C=C[C@H](C)[C@H](CCC(O)C[C@@H](O)CC(=O)O)C21` (stereo not given in full) belongs 0.013 µM; to `CC[C@H](C)C(=O)O[C@H]1CCC=C2C=C[C@H](C)[C@H](CCC(=O)C[C@@H](O)CC(=O)O)C21` (stereo not given in full), 0.032 µM.

The molecule `O=C(O)C[C@H](O)CC(=O)CCc1ccccc1` displayed an IC50 of 1300 µM. In turn, `O=C(O)CC(O)CC(O)CCc1ccccc1` (stereo not given) yielded an IC50 of 600 µM.
